Reference: US20240383886A1, “Protein Tyrosine Phosphatase Degraders and Methods of Use Thereof” (CALICO LIFE SCIENCES LLC, priority 2019, published 2024)

Experiments:
PTPN2 [1] = target: T1, PTPN2 (Homo sapiens, UniProt P17706); assay: HiBiT-Degradation 293T.109 PTPN2 (Nano-Glo HiBiT Lytic Assay); format: cell-based; conditions: 293T.109 (HiBiT-PTPN2) cells, 24.0 hours
T1 construct: expressed in transfected cells; host or cells: 293T (293T.109 HiBiT-PTPN2 line; parental 293T WT from ATCC)
T1 sequence (P17706 1-415): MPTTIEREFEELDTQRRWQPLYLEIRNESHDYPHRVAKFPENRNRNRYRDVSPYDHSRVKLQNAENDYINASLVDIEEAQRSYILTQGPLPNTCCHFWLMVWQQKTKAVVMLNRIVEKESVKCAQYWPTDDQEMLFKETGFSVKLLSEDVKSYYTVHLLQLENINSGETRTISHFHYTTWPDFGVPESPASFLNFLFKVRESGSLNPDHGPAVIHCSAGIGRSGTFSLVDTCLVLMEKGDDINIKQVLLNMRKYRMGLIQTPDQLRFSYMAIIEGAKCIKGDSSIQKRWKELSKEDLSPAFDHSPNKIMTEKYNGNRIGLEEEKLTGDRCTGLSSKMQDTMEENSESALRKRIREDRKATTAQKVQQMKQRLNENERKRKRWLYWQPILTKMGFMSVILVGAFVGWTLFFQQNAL
Outline: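 Luminescence from a lytic HiBiT read gave PTPN2 levels after 24 h compound exposure at 37° C. Compounds were tested at 11 half-log points from a 10 μM top concentration, in duplicate. The cells were 293T engineered with an N-terminal HiBiT–PTPN2 fusion, plated at 5000 per well, with untreated wells as negative control and no-reagent wells as positive control.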

PTPN2 [2] = assay: HiBiT-Degradation B16F10.4 PTPN2; format: cell-based; conditions: B16F10.4 cells, 24.0 hours

In the case of O=C(CN1CCC(c2ccc3c(c2)oc(=O)n3C2CCC(=O)NC2=O)CC1)NCCOc1ccc2cc(O)c(N3CC(=O)NS3(=O)=O)c(F)c2c1 (stereo not drawn) [Example 5, 2-[4-[3-(2,6-dioxo-3-piperidyl)-2-oxo-1,3-benzoxazol-6-yl]-1-piperidyl]-N-[2-[[8-fluoro-6-hydroxy-7-(1,1,4-trioxo-1,2,5-thiadiazolidin-2-yl)-2-naphthyl]oxy]ethyl]acetamide], the DC50 (PTPN2 [1]) is reported as 0.05 to 0.2 µM and the DC50 (PTPN2 [2]) is reported as ≥ 1 µM.
CCn1c(=O)n(C2CCC(=O)NC2=O)c2ccc(C3CCN(CC(=O)Nc4ccc5c(F)c(N6CC(=O)NS6(=O)=O)c(O)cc5c4)CC3)cc21 (stereo not drawn) [Example 174, N-(6-(1,1-dioxido-4-oxo-1,2,5-thiadiazolidin-2-yl)-5-fluoro-7-hydroxynaphthalen-2-yl)-2-(4-(1-(2,6-dioxopiperidin-3-yl)-3-ethyl-2-oxo-2,3-dihydro-1H-benzo[d]imidazol-5-yl)piperidin-1-yl)acetamide] showed a DC50 (PTPN2 [1]) of 0.01 to 0.05 µM and a DC50 (PTPN2 [2]) of 0.05 to 0.2 µM.
For O=C1CCC(N2C(=O)c3cccc(NCc4cn(C5CN(C(=O)Nc6ccc7c(F)c(N8CC(=O)NS8(=O)=O)c(O)cc7c6)C5)nn4)c3C2=O)C(=O)N1 (stereo not drawn) [Example 17, 3-[4-[[[2-(2,6-dioxo-3-piperidyl)-1,3-dioxo-isoindolin-4-yl]amino]methyl]triazol-1-yl]-N-[5-fluoro-7-hydroxy-6-(1,1,4-trioxo-1,2,5-thiadiazolidin-2-yl)-2-naphthyl]azetidine-1-carboxamide], the DC50 (PTPN2 [1]) was 0.05 to 0.2 µM and the DC50 (PTPN2 [2]) was ≥ 1 µM.
For O=C1CCC(N2Cc3c(NCc4cn(C5CN(C(=O)Nc6ccc7c(F)c(N8CC(=O)NS8(=O)=O)c(O)cc7c6)C5)nn4)cccc3C2=O)C(=O)N1 (stereo not drawn) [Example 57], the DC50 (PTPN2 [1]) was 0.2 to 1 µM and the DC50 (PTPN2 [2]) was ≥ 1 µM.
With Cn1c(=O)n(C2CCC(=O)NC2=O)c2ccc(C3CCN(CCCCCOc4ccc5cc(O)c(N6CC(=O)NS6(=O)=O)c(F)c5c4)CC3)cc21 (stereo not drawn) [Example 95, 3-[5-[1-[5-[[8-fluoro-6-hydroxy-7-(1,1,4-trioxo-1,2,5-thiadiazolidin-2-yl)-2-naphthyl]oxy]pentyl]-4-piperidyl]-3-methyl-2-oxo-benzimidazol-1-yl]piperidine-2,6-dione] the DC50 (PTPN2 [1]) was 0.01 to 0.05 µM and the DC50 (PTPN2 [2]) was 0.05 to 0.2 µM.
CN(CCOc1ccc2cc(O)c(N3CC(=O)NS3(=O)=O)c(F)c2c1)C(=O)CN1CCC(c2ccc3c(c2)n(C)c(=O)n3C2CCC(=O)NC2=O)CC1 (stereo not drawn) [Example 97, 2-[4-[1-(2,6-dioxo-3-piperidyl)-3-methyl-2-oxo-benzimidazol-5-yl]-1-piperidyl]-N-[2-[[8-fluoro-6-hydroxy-7-(1,1,4-trioxo-1,2,5-thiadiazolidin-2-yl)-2-naphthyl]oxy]ethyl]-N-methyl-acetamide] showed a DC50 (PTPN2 [1]) of 0.05 to 0.2 µM and a DC50 (PTPN2 [2]) of 0.2 to 1 µM.
Work on Cn1nc(C2CCC(=O)NC2=O)c2ccc(-c3ccc(CC(=O)Nc4ccc5c(F)c(N6CC(=O)NS6(=O)=O)c(O)cc5c4)cc3)cc21 (stereo not drawn) [Example 177, N-(6-(1,1-dioxido-4-oxo-1,2,5-thiadiazolidin-2-yl)-5-fluoro-7-hydroxynaphthalen-2-yl)-2-(4-(3-(2,6-dioxopiperidin-3-yl)-1-methyl-1H-indazol-6-yl)phenyl)acetamide] yielded a DC50 (PTPN2 [1]) of 0.01 to 0.05 µM and a DC50 (PTPN2 [2]) of 0.05 to 0.2 µM.
With Cn1c(=O)n(C2CCC(=O)NC2=O)c2ccc(-c3ccc(CNC(=O)c4ccc5c(F)c(N6CC(=O)NS6(=O)=O)c(O)cc5c4)cc3)cc21 (stereo not drawn) [Example 106] the DC50 (PTPN2 [1]) was 0.2 to 1 µM and the DC50 (PTPN2 [2]) was 0.2 to 1 µM.
In the case of Cn1c(=O)n(C2CCC(=O)NC2=O)c2ccc(CCC(=O)NCCOc3ccc4cc(O)c(N5CC(=O)NS5(=O)=O)c(F)c4c3)cc21 (stereo not drawn) [Example 34], the DC50 (PTPN2 [1]) is reported as ≥ 1 µM and the DC50 (PTPN2 [2]) is reported as ≥ 1 µM.
With O=C1CCC(N2Cc3cc(NCc4cnn(CCC(=O)Nc5ccc6c(F)c(N7CC(=O)NS7(=O)=O)c(O)cc6c5)c4)ccc3C2=O)C(=O)N1 (stereo not drawn) [Example 16, 3-[4-[[[2-(2,6-dioxo-3-piperidyl)-1-oxo-isoindolin-5-yl]amino]methyl]pyrazol-1-yl]-N-[5-fluoro-7-hydroxy-6-(1,1,4-trioxo-1,2,5-thiadiazolidin-2-yl)-2-naphthyl]propanamide] the DC50 (PTPN2 [1]) was 0.05 to 0.2 µM and the DC50 (PTPN2 [2]) was 0.2 to 1 µM.
With Cn1c(=O)n(C2CCC(=O)NC2=O)c2ccc(C3CCN(CC(=O)NCCOc4ccc5cc(O)c(N6CC(=O)NS6(=O)=O)c(Cl)c5c4)CC3)cc21 (stereo not drawn) [Example 100, N-[2-[[8-chloro-6-hydroxy-7-(1,1,4-trioxo-1,2,5-thiadiazolidin-2-yl)-2-naphthyl]oxy]ethyl]-2-[4-[1-(2,6-dioxo-3-piperidyl)-3-methyl-2-oxo-benzimidazol-5-yl]-1-piperidyl]acetamide] the DC50 (PTPN2 [1]) was 0.2 to 1 µM and the DC50 (PTPN2 [2]) was 0.2 to 1 µM.
Molecule Cn1c(=O)n(C2CCC(=O)NC2=O)c2ccc(C3CCN(CC(=O)N4CCC(c5ccc6cc(O)c(N7CC(=O)NS7(=O)=O)c(F)c6c5)CC4)CC3)cc21 (stereo not drawn) [Example 120, 3-[5-[1-[2-[4-[8-fluoro-6-hydroxy-7-(1,1,4-trioxo-1,2,5-thiadiazolidin-2-yl)-2-naphthyl]-1-piperidyl]-2-oxo-ethyl]-4-piperidyl]-3-methyl-2-oxo-benzimidazol-1-yl]piperidine-2,6-dione] has a DC50 (PTPN2 [1]) of 0.01 to 0.05 µM and a DC50 (PTPN2 [2]) of 0.05 to 0.2 µM.
For O=C(CN1CC(n2cc(CNc3cccc4c3C(=O)N(C3CCC(=O)NC3=O)C4=O)nn2)C1)NCCOc1ccc2cc(O)c(N3CC(=O)NS3(=O)=O)c(F)c2c1 (stereo not drawn) [Example 42], the DC50 (PTPN2 [1]) was 0.2 to 1 µM and the DC50 (PTPN2 [2]) was ≥ 1 µM.
With O=C1CCC(N2Cc3c(OCc4cnn(CCC(=O)Nc5ccc6c(F)c(N7CC(=O)NS7(=O)=O)c(O)cc6c5)c4)cccc3C2=O)C(=O)N1 (stereo not drawn) [Example 21, N-(6-(1,1-dioxido-4-oxo-1,2,5-thiadiazolidin-2-yl)-5-fluoro-7-hydroxynaphthalen-2-yl)-3-(4-(((2-(2,6-dioxopiperidin-3-yl)-1-oxoisoindolin-4-yl)oxy)methyl)-1H-pyrazol-1-yl)propanamide] the DC50 (PTPN2 [1]) was 0.05 to 0.2 µM and the DC50 (PTPN2 [2]) was 0.2 to 1 µM.
In the case of O=C1CCC(N2C(=O)c3cccc(NCc4cn(CCC(=O)Nc5ccc6c(F)c(N7CC(=O)NS7(=O)=O)c(O)cc6c5)nn4)c3C2=O)C(=O)N1 (stereo not drawn) [Example 68], the DC50 (PTPN2 [1]) is reported as 0.2 to 1 µM and the DC50 (PTPN2 [2]) is reported as ≥ 1 µM.
Cn1c(=O)n(C2CCC(=O)NC2=O)c2ccc(N3CCC(CC(=O)N4CCC[C@@H](COc5ccc6cc(O)c(N7CC(=O)NS7(=O)=O)c(F)c6c5)C4)CC3)cc21 (stereo partly drawn) [Example 142, 3-[5-[4-[2-[(3R)-3-[[8-fluoro-6-hydroxy-7-(1,1,4-trioxo-1,2,5-thiadiazolidin-2-yl)-2-naphthyl]oxymethyl]-1-piperidyl]-2-oxo-ethyl]-1-piperidyl]-3-methyl-2-oxo-benzimidazol-1-yl]piperidine-2,6-dione] was tested, and the DC50 (PTPN2 [1]) was 0.05 to 0.2 µM and the DC50 (PTPN2 [2]) was 0.2 to 1 µM.
Cn1c(=O)n(C2CCC(=O)NC2=O)c2ccc(N3CCC(O)(CC(=O)Nc4ccc5c(F)c(N6CC(=O)NS6(=O)=O)c(O)cc5c4)CC3)cc21 (stereo not drawn) [Example 82, 2-[1-[1-(2,6-dioxo-3-piperidyl)-3-methyl-2-oxo-benzimidazol-5-yl]-4-hydroxy-4-piperidyl]-N-[5-fluoro-7-hydroxy-6-(1,1,4-trioxo-1,2,5-thiadiazolidin-2-yl)-2-naphthyl]acetamide] was tested, and the DC50 (PTPN2 [1]) was < 0.01 µM and the DC50 (PTPN2 [2]) was 0.2 to 1 µM.
With Cn1c(=O)n(C2CCC(=O)NC2=O)c2ccc(C3CCN(C4CC(C(=O)Nc5ccc6c(F)c(N7CC(=O)NS7(=O)=O)c(O)cc6c5)C4)CC3)cc21 (stereo not drawn) [Example 86, 3-[4-[1-(2,6-dioxo-3-piperidyl)-3-methyl-2-oxo-benzimidazol-5-yl]-1-piperidyl]-N-[5-fluoro-7-hydroxy-6-(1,1,4-trioxo-1,2,5-thiadiazolidin-2-yl)-2-naphthyl]cyclobutanecarboxamide] the DC50 (PTPN2 [1]) was 0.01 to 0.05 µM and the DC50 (PTPN2 [2]) was 0.05 to 0.2 µM.
With Cc1cc(CC(=O)Nc2ccc3c(F)c(N4CC(=O)NS4(=O)=O)c(O)cc3c2)ccc1Nc1ccc2c(c1)n(C)c(=O)n2C1CCC(=O)NC1=O (stereo not drawn) [Example 169, N-(6-(1,1-dioxido-4-oxo-1,2,5-thiadiazolidin-2-yl)-5-fluoro-7-hydroxynaphthalen-2-yl)-2-(4-((1-(2,6-dioxopiperidin-3-yl)-3-methyl-2-oxo-2,3-dihydro-1H-benzo[d]imidazol-5-yl)amino)-3-methylphenyl)acetamide] the DC50 (PTPN2 [1]) was 0.01 to 0.05 µM and the DC50 (PTPN2 [2]) was 0.01 to 0.05 µM.
For Cn1c(=O)n(C2CCC(=O)NC2=O)c2ccc(-c3ccc(CCC(=O)Nc4ccc5c(F)c(N6CC(=O)NS6(=O)=O)c(O)cc5c4)cc3)cc21 (stereo not drawn) [Example 116, N-(6-(1,1-dioxido-4-oxo-1,2,5-thiadiazolidin-2-yl)-5-fluoro-7-hydroxynaphthalen-2-yl)-3-(4-(1-(2,6-dioxopiperidin-3-yl)-3-methyl-2-oxo-2,3-dihydro-1H-benzo[d]imidazol-5-yl)phenyl)propanamide], the DC50 (PTPN2 [1]) was 0.05 to 0.2 µM and the DC50 (PTPN2 [2]) was 0.05 to 0.2 µM.
Work on Cn1c(=O)n(C2CCC(=O)NC2=O)c2ccc(N3CCC(CNC(=O)c4ccc5c(F)c(N6CC(=O)NS6(=O)=O)c(O)cc5c4)CC3)cc21 (stereo not drawn) [Example 99, N-[[1-[1-(2,6-dioxo-3-piperidyl)-3-methyl-2-oxo-benzimidazol-5-yl]-4-piperidyl]methyl]-5-fluoro-7-hydroxy-6-(1,1,4-trioxo-1,2,5-thiadiazolidin-2-yl)naphthalene-2-carboxamide] yielded a DC50 (PTPN2 [1]) of 0.05 to 0.2 µM and a DC50 (PTPN2 [2]) of 0.05 to 0.2 µM.
